Columns and labels:
Details in all cases: 48 h
NOMO1 [1] = experiment: AUC of viability dose-response curve (% viability x log10 dose units); higher = less sensitive
Procedure, shortened: (§1)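 Leukemia cells adapted to each medium were seeded in 1536-well plates (500 or 1000 cells/well). They were dosed with library compounds in DMSO at 11 threefold doses, 47 μM to 0.79 nM, for 48 h at 37°C. CellTiter-Glo One luminescence was normalised per plate to DMSO and cell-free wells. Area under the curve was integrated by trapezoidal rule over log10 doses on a four-parameter log-logistic fit; curves exceeding full viability were scaled and curves failing quality control removed.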

P12-Ichikawa [2] = experiment: as above
Procedure, shortened: as §1

SEM cells [3] = experiment: as above
Procedure, shortened: as §1

P12-Ichikawa [4] = experiment: cell viability relative to DMSO control; higher = less cytotoxic
Procedure, shortened: (§2)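 Cells were incubated for 48 h at 37°C before CellTiter-Glo One luminescence was read. The cells were NOMO1 or SEM (500 cells/well) or P12-Ichikawa (1000 cells/well) leukemia cells, adapted for at least four passages in each medium and seeded in 1536-well plates (5 μl). Dosing used library compounds in DMSO applied by pin over 11 threefold points, 47 μM to 0.79 nM. Viability is the per-plate percentage of DMSO wells, with cell-free wells as background.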

SEM cells [5] = experiment: as above
Procedure, shortened: as §2

NOMO1 [6] = experiment: as above
Procedure, shortened: as §2

N=C(N)NC(=N)NCCc1ccccc1
AUC of viability dose-response curve
Details	NOMO1 [1]	P12-Ichikawa [2]	SEM cells [3]
HPLM + 10% dialyzed FBS	464	450	465
RPMI 5 mM glucose + 10% FBS	456	440	461
RPMI 5 mM glucose + 10% dialyzed FBS	455	438	444

N#C/C(=C(/N)Sc1ccc(N)cc1)c1ccccc1C(F)(F)F
cell viability [%], HPLM + 10% dialyzed FBS
Details	P12-Ichikawa [4]	SEM cells [5]
0.000781 µM	123	91.1
0.00234 µM	121	141
0.00702 µM	125	124
0.0211 µM	125	129
0.0632 µM	133	129
0.19 µM	118	124
0.569 µM	120	126
1.71 µM	103	110
5.12 µM	94.4	85.4
15.4 µM	94.1	82.3
46.1 µM	83.9	64.6

AUC of viability dose-response curve
Details	NOMO1 [1]	P12-Ichikawa [2]	SEM cells [3]
HPLM + 10% dialyzed FBS	354	433	428
RPMI 5 mM glucose + 10% FBS	386	417	424
RPMI 5 mM glucose + 10% dialyzed FBS	366	436	404

NC(=O)N/N=C/c1ccc([N+](=O)[O-])o1
cell viability [%], SEM cells [5]
Details	HPLM + 10% dialyzed FBS	RPMI 5 mM glucose + 10% FBS
0.000781 µM	104	121
0.00234 µM	120	133
0.00702 µM	101	123
0.0211 µM	124	129
0.0632 µM	125	137
0.19 µM	122	142
0.569 µM	109	116
1.71 µM	122	140
5.12 µM	112	139
15.4 µM	126	161
46.1 µM	109	120

AUC of viability dose-response curve
Details	NOMO1 [1]	P12-Ichikawa [2]	SEM cells [3]
HPLM + 10% dialyzed FBS	455	470	472
RPMI 5 mM glucose + 10% FBS	441	435	453
RPMI 5 mM glucose + 10% dialyzed FBS	434	470	467

OC1=CC2=C(C(=C1)O)C(=O)\C(=C(/O2)C3=CC(=C(O)C(=C3)O)O)O
AUC of viability dose-response curve
Details	NOMO1 [1]	P12-Ichikawa [2]	SEM cells [3]
HPLM + 10% dialyzed FBS	451	454	462
RPMI 5 mM glucose + 10% FBS	470	471	460
RPMI 5 mM glucose + 10% dialyzed FBS	458	466	470

C[C@@H]1C(=O)O[C@H]2CC34[C@H]5C[C@@H](C(C)(C)C)C36[C@@H](OC(=O)[C@@H]6O)O[C@@]4(C(=O)O5)[C@]21O (stereo not given in full)
AUC of viability dose-response curve
Details	NOMO1 [1]	P12-Ichikawa [2]	SEM cells [3]
HPLM + 10% dialyzed FBS	431	447	465
RPMI 5 mM glucose + 10% FBS	460	462	467
RPMI 5 mM glucose + 10% dialyzed FBS	463	462	456

CN1CC[C@H]([C@@H](O)C1)C2=C(O)C=C(O)C3=C2O\C(=C/C3=O)C4=CC=CC=C4Cl
SEM cells [5], HPLM + 10% dialyzed FBS
Details	cell viability [%]
0.000781 µM	104
0.00234 µM	121
0.00702 µM	134
0.0211 µM	132
0.0632 µM	128
0.19 µM	131
0.569 µM	23
1.71 µM	10.1
5.12 µM	6.69
15.4 µM	5.22
46.1 µM	6.07

AUC of viability dose-response curve
Details	NOMO1 [1]	P12-Ichikawa [2]	SEM cells [3]
HPLM + 10% dialyzed FBS	265	306	281
RPMI 5 mM glucose + 10% FBS	288	301	276
RPMI 5 mM glucose + 10% dialyzed FBS	285	300	282

Oc1ccc(OCc2ccccc2)cc1
cell viability [%]
Details	NOMO1 [6]	P12-Ichikawa [4]	SEM cells [5]
HPLM + 10% dialyzed FBS, 0.000781 µM	108	114	89.8
HPLM + 10% dialyzed FBS, 0.00234 µM	131	114	106
HPLM + 10% dialyzed FBS, 0.00702 µM	116	119	98.9
HPLM + 10% dialyzed FBS, 0.0211 µM	106	105	113
HPLM + 10% dialyzed FBS, 0.0632 µM	132	119	20.8
HPLM + 10% dialyzed FBS, 0.19 µM	108	102	103
HPLM + 10% dialyzed FBS, 0.569 µM	102	115	106
HPLM + 10% dialyzed FBS, 1.71 µM	107	103	97.1
HPLM + 10% dialyzed FBS, 5.12 µM	105	90.1	92.5
HPLM + 10% dialyzed FBS, 15.4 µM	79.7	69.9	47.7
HPLM + 10% dialyzed FBS, 46.1 µM	48.6	65.3	28.7
RPMI 5 mM glucose + 10% FBS, 0.000781 µM	119	114	103
RPMI 5 mM glucose + 10% FBS, 0.00234 µM	113	116	106
RPMI 5 mM glucose + 10% FBS, 0.00702 µM	127	111	108
RPMI 5 mM glucose + 10% FBS, 0.0211 µM	120	127	110
RPMI 5 mM glucose + 10% FBS, 0.0632 µM	114	106	13.6
RPMI 5 mM glucose + 10% FBS, 0.19 µM	127	114	113
RPMI 5 mM glucose + 10% FBS, 0.569 µM	105	109	114
RPMI 5 mM glucose + 10% FBS, 1.71 µM	104	93.7	104
RPMI 5 mM glucose + 10% FBS, 5.12 µM	101	83.4	77.6
RPMI 5 mM glucose + 10% FBS, 15.4 µM	110	68.4	58.3
RPMI 5 mM glucose + 10% FBS, 46.1 µM	87.8	64.8	31.6
RPMI 5 mM glucose + 10% dialyzed FBS, 0.000781 µM	110	105	112
RPMI 5 mM glucose + 10% dialyzed FBS, 0.00234 µM	116	115	114
RPMI 5 mM glucose + 10% dialyzed FBS, 0.00702 µM	105	114	130
RPMI 5 mM glucose + 10% dialyzed FBS, 0.0211 µM	112	117	119
RPMI 5 mM glucose + 10% dialyzed FBS, 0.0632 µM	108	106	47.4
RPMI 5 mM glucose + 10% dialyzed FBS, 0.19 µM	106	115	109
RPMI 5 mM glucose + 10% dialyzed FBS, 0.569 µM	114	107	126
RPMI 5 mM glucose + 10% dialyzed FBS, 1.71 µM	113	86.5	109
RPMI 5 mM glucose + 10% dialyzed FBS, 5.12 µM	116	75.2	98.9
RPMI 5 mM glucose + 10% dialyzed FBS, 15.4 µM	89.9	52.4	69.2
RPMI 5 mM glucose + 10% dialyzed FBS, 46.1 µM	60.7	44.6	30.3

AUC of viability dose-response curve
Details	HPLM + 10% dialyzed FBS	RPMI 5 mM glucose + 10% FBS	RPMI 5 mM glucose + 10% dialyzed FBS
NOMO1 [1]	441	444	457
P12-Ichikawa [2]	435	420	407

O=C(CN1C(=O)C2(CCCC2)NC[C@H]1c1cc(F)cc(F)c1)Nc1ccc2c(c1)C[C@@]1(C2)C(=O)Nc2ncccc21
cell viability [%], SEM cells [5]
Details	HPLM + 10% dialyzed FBS	RPMI 5 mM glucose + 10% FBS
0.000781 µM	109	123
0.00234 µM	104	104
0.00702 µM	119	126
0.0211 µM	139	142
0.0632 µM	125	131
0.19 µM	131	136
0.569 µM	132	145
1.71 µM	140	131
5.12 µM	142	135
15.4 µM	114	129
46.1 µM	104	129

AUC of viability dose-response curve
Details	NOMO1 [1]	P12-Ichikawa [2]	SEM cells [3]
HPLM + 10% dialyzed FBS	445	472	461
RPMI 5 mM glucose + 10% FBS	459	466	463
RPMI 5 mM glucose + 10% dialyzed FBS	467	471	446

Reference: the supplement of paper PMC11451515
